Test results from US6875761B2 (Eisai Co., Ltd., priority 1997, dated 2005).
Counter-ions that a name gives are not always drawn.

| Structure (SMILES) | melting point |
| --- | --- |
| CCN1CCN(c2nc(/C=C/c3ccc(OC)cc3)cc3ccccc23)CC1 (as salt: hydrochloride) [Example 190, 1-(1-Ethylpiperazin-4-Yl)-3-[Trans-2-(4-Methoxyphenyl)Ethenyl]Isoquinoline Dihydrochloride] | 227 °C (dec.) |
| CCCC(=O)Nc1ccc(-c2cc3ccccc3c(N3CCN(CC)CC3)n2)cc1 (as salt: hydrochloride) [Example 70, 3-(4-Propylcarbonylaminophenyl]-1-(4-Ethylpiperazin-1-Yl)Isoquinoline Hydrochloride] | 170 to 172 °C |
| CCN1CCN(c2nc(-c3ccc(S(=O)(=O)CC)nc3)cc3ccccc23)CC1 (as salt: hydrochloride) [Example 130, 3-[(2-Ethylsulfonylpyridin)-5-yl]-1-(4-Ethylpiperazin-1-yl)Isoquinoline Hydrochloride] | 155 to 159 °C |
| CCN1CCN(c2nc(C3=CCCc4ccc(OC)cc43)cc3ccccc23)CC1 (as salt: oxalate) | 150 to 153 °C |
| CCN1CCN(c2nc(-c3ccc(CCCO)cc3)cc3ccccc23)CC1 (as salt: hydrochloride) [Example 20, 1-(4-ethylpiperazin-1-yl)-3-[4-(3-hydroxypropyl)phenyl]isoquinoline hydrochloride] | 116 to 119 °C |
| CCN1CCN(c2nc(-c3ccc(OCCN(C)C)cc3)cc3ccccc23)CC1 (as salt: hydrochloride) [Example 49, 1-(1-Ethylpiperazin-4-Yl)-3-[4-(2-Dimethylaminoethoxy)Phenyl]Isoquinoline] | 153 to 158 °C |
| CCCS(=O)(=O)NCc1ccc(-c2cc3ccccc3c(N3CCN(CC)CC3)n2)cc1Cl (as salt: hydrochloride) [Example 92, 3-(3-Chloro-4-propylsulfonylaminomethylphenyl)-1-(4-ethylpiperazin-1-yl)isoquinoline Hydrochloride] | 253 to 255 °C (dec.) |
| CCN1CCN(c2nc(-c3ccc(CCC(C)O)cc3)cc3ccoc23)CC1 (stereo not shown) (as salt: hydrochloride) [Example 300, 7-(1-ethylpiperazin-4-yl)-5-[4-(3-hydroxybutyl)phenyl]furo[2,3-c]pyridine dihydrochloride] | 175 to 177 °C |
| C=CCN1CCN(c2nc(-c3ccc(OC)cc3)cc3ccccc23)CC1 (as salt: hydrochloride) [Example 240, 1-(1-allylpiperazin-4-yl)-3-(4-methoxyphenyl)isoquinoline dihydrochloride] | 111 to 116 °C |
| CCN1CCN(c2nc(-c3ccc(N4CCOC4=O)cc3)cc3ccccc23)CC1 (as salt: hydrochloride) [Example 95, 3-[4-(3-Oxazolidinone)phenyl]-1-(4-ethylpiperazin-1-yl)isoquinoline Hydrochloride] | 171 to 174 °C |
| CCN1CCN(c2nc(-c3ccc(CCCO)cc3)cc3sccc23)CC1 (as salt: hydrochloride) [Example 465, 4-(4-ethylpiperazin-1-yl)-6-[4-(3-hydroxypropy)phenyl]thieno[3,2-c]pyridine dihydrochloride] | 125.5 to 126.5 °C |
| CCN1CCN(c2nc(-c3ccc(OCC#N)cc3)cc3ccccc23)CC1 (as salt: hydrochloride) [Example 51, 3-(4-Cyanomethoxyphenyl)-1-(4-Ethylpiperazin-1-Yl)Isoquinoline Hydrochloride] | 123 to 125 °C |
| CCCNC(=O)Cc1ccc(-c2cc3ccccc3c(N3CCN(CC)CC3)n2)cc1 (as salt: hydrochloride) [Example 88, 3-(4-Propylaminocarbonylmethylphenyl)-1-(4-ethylpiperazin-1-yl)isoquinoline Hydrochloride] | 138 to 141 °C |
| CCS(=O)(=O)NCc1ccc(-c2cc3ccccc3c(N3CCN(CCO)CC3)n2)cc1 (as salt: hydrochloride) [Example 243, 3-(4-ethylsulfonylaminomethylphenyl)-1-[4-(2-hydroxyethyl)piperazin-1-yl]isoquinoline Hydrochloride] | 171 to 174 °C |
| CCN1CCN(c2nc(-c3ccc(CO)c(F)c3)cc3ccccc23)CC1 (as salt: hydrochloride) [Example 28, 1-(4-ethylpiperazin-1-yl)-3-[4-(4-hydroxymethyl-3-fluoro)phenyl]isoquinoline hydrochloride] | 228 °C (dec.) |
| CCN1CCN(c2nc(-c3ccc(OC)cc3)cc3cccc(C)c23)CC1 (as salt: hydrochloride) | 248 to 253 °C |
| CCN1CCN(c2nc(-c3ccc(OCCO)cc3)cc3cccc(F)c23)CC1 (as salt: hydrochloride) [Example 234, 1-(1-ethylpiperazin-4-yl)-8-fluoro-3-[4-(2-hydroxyethoxy)phenyl]isoquinoline dihydrochloride] | 215 to 219 °C |

More lines, now with the values ahead:

| melting point | Structure (SMILES) |
| --- | --- |
| 105 to 105.5 °C | CCN1CCN(c2nc(-c3cc(F)c(OCCF)c(F)c3)cc3ccccc23)CC1 (as salt: hydrochloride) [Example 371, 1-(4-ethylpiperazin-1-yl)-3-[3,5-difluoro-4-(2-fluoroethoxy)phenyl]isoquinoline dihydrochloride] |
| 153 to 155 °C | COc1ccc(-c2cc3ccccc3c(N3CCN(CC(N)=O)CC3)n2)cc1 (as salt: hydrochloride) [Example 314, 1-[1-(carbamoylmethyl)piperazin-4-yl]-3-(4-methoxyphenyl)isoquinoline dihydrochloride] |
| 151 to 152.5 °C (dec.) | CCN1CCN(c2nc(-c3ccc([C@@H]4C[C@@H](O)CCO4)cc3)cc3ccccc23)CC1 (relative stereo) (as salt: hydrochloride) [Example 402, 1-(4-Ethylpiperazin-1-yl)-3-[4-(trans-4-Hydroxytetrahydropyran-2-yl)Phenyl]Isoquinoline Dihydrochloride] |
| 98 to 99 °C | CCN1CCN(c2nc(/C=C/c3cccc(OCCO)c3)cc3ccsc23)CC1 (as salt: hydrochloride) [Example 430, 7-(4-ethylpiperazin-1-yl)-5-[3-(2-hydroxyethoxy)styryl]thieno [2,3-c]pyridine hydrochloride] |
| 118 to 121 °C | CCN1CCN(c2nc(-c3ccc(CCC(C)O)cc3)cc3cccnc23)CC1 (stereo not shown) (as salt: hydrochloride) [Example 248, 8-(1-ethylpiperazin-4-yl)-6-[4-(3-hydroxybutyl)phenyl]-1,7-naphthyridine Dihydrochloride] |
| 124 to 125 °C | CCN1CCN(c2nc(-c3ccc(O[C@H](C)CO)cc3)cc3sccc23)CC1 (stereo in doubt) (as salt: hydrochloride) [Example 463, 4-(4-ethylpiperazin-1-yl)-6-[4-(2-hydroxy-1-methylethoxy)phenyl]thieno[3,2-c]pyridine dihydrochloride] |
| 127.5 to 128 °C | CCCCNC(=O)c1ccc(-c2cc3ccsc3c(N3CCN(CC)CC3)n2)cc1 (as salt: hydrochloride) [Example 452, 7-(4-ethylpiperazin-1-yl)-5-[4-(N-butylcarbamoyl)phenyl]thieno[2,3-c]pyridine dihydrochloride] |
| 141 to 143 °C | CN1CCN(c2nc(-c3ccc(OCCO)cc3)cc3ccsc23)CC1 (as salt: hydrochloride) [Example 253, 5-[4-(2-hydroxyethoxy)phenyl]-7-(4-methylpiperazin-1-yl)thieno[2,3-c]pyridine Hydrochloride] |
| 168 to 170 °C | CCN1CCN(c2nc(-c3ccc(C4=CCC(O)CC4)cc3)cc3ccsc23)CC1 (stereo not shown) (as salt: hydrochloride) [Example 270, 5-[4-(4-hydroxycyclohexen-1-yl)phenyl]-7-(4-ethylpiperazin-1-yl)thieno[2,3-c]pyridine hydrochloride] |
| 110.5 to 112 °C | CCN1CCN(c2nc(-c3ccc(CCC(C)O)cc3)cc3ccsc23)CC1 (stereo not shown) (as salt: hydrochloride) [Example 440, 7-(4-ethylpiperazin-1-yl)-5-[4-(3-hydroxybutyl)phenyl]thieno[2,3-c]pyridine dihydrochloride] |
| 152 to 153 °C | CCN1CCN(c2nc(-c3ccc([C@H]4CC[C@@H](O)CC4)cc3)cc3ccccc23)CC1 (as salt: hydrochloride) [Example 397, 1-(4-Ethylpiperazin-1-yl)-3-[4-(cis-4-Hydroxycyclohexyl)Phenyl]Isoquinoline Dihydrochloride] |
| 148 to 149.5 °C | CCN1CCN(c2nc(-c3ccc([C@@H]4C[C@H](O)CCO4)cc3)cc3ccccc23)CC1 (relative stereo) (as salt: hydrochloride) [Example 401, 1-(4-Ethylpiperazin-1-yl)-3-[4-(cis-4-Hydroxytetrahydropyran-2-yl)Phenyl]Isoquinoline Dihydrochloride] |
| 98.5 to 99.5 °C | CCN1CCN(c2nc(-c3ccc(SC[C@@H](C)O)cc3)cc3ccsc23)CC1 (as salt: hydrochloride) [Example 444, 7-(4-ethylpiperazin-1-yl)-5-[4-(2-hydroxypropylthio)phenyl]thieno[2,3-c]pyridine dihydrochloride] |
| 222 to 224 °C (dec.) | CCN1CCN(c2nc(-c3ccc(S(=O)(=O)NCCOC)cc3)cc3ccccc23)CC1 (as salt: hydrochloride) [Example 354, 1-(4-ethylpiperazin-1-yl)-3-{4-[N-(2-methoxyethyl)sulfamoyl]phenyl}isoquinoline dihydrochloride] |
| 182 to 185 °C | CCN1CCN(c2nc(-c3ccc(N4CCOCC4)nc3)cc3ccsc23)CC1 (as salt: hydrochloride) [Example 263, 5-[2-(4-morpholinyl)pyridin-5-yl]-7-(4-ethylpiperazin-1-yl)thieno[2,3-c]pyridine Hydrochloride] |
| 154 to 155 °C | CCN1CCN(c2nc(-c3ccc(C(=O)NCCO)cc3)cc3ccccc23)CC1 (as salt: hydrochloride) [Example 346, 1-(4-ethylpiperazin-1-yl)-3-{4-(N-(2-hydroxyethyl)carbamoyl]phenyl}isoquinoline dihydrochloride] |
| 148 to 149 °C | CCN1CCN(c2nc(-c3ccc(C(=O)NC4CCCC4)cc3)cc3ccsc23)CC1 (as salt: hydrochloride) [Example 453, 7-(4-ethylpiperazin-1-yl)-5-[4-(N-cyclopentylcarbamoyl)phenyl]thieno[2,3-c]pyridine dihydrochloride] |
